Publication PMC12830989, “Subcellular glycan-mannose receptor binding kinetics correlate with myeloid cell function” (Nature Communications, 2025)
Several values for one entry are separate records, joined by “and”; a condition that tells them apart may be missing. Equal values may be shown once. sCy5 = sulfo-Cy5

Test system: WT BMDC with OT-I T cells
Assay: T cell proliferation assay (cross-presentation to OT-I T cells), WT BMDC
Assay type: cell-based, mouse
Details: Fig 4f source data; 40 nM SLP pulse 2 h, MPLA-matured BMDC, 3 d coculture with OT-I; per experiment, two technical replicates
Procedure: A 70 µm filter was placed on a 50 mL tube and pre-wetted with PBS supplemented with 2 mM EDTA and 2% FCS (single-cell suspension buffer, SCSB). Freshly harvested spleens from OT-I transgenic mice were placed on the filter and disrupted with the back end of a syringe. After thorough washing, the suspension was centrifuged (10 min., 300 rcf, rt). Next, the pellet was gently resuspended in 2 mL of ACK lysing buffer (Gibco, A1049201). After 3 min incubation, the suspension was diluted with 10 mL PBS, filtered once more, and centrifuged again (300 rcf, 10 min, rt). The pellet was resuspended and subjected to magnetically-activated depletion of non-target cells using the “Naïve CD8a+ T cell isolation Kit” (Miltenyi, 130-096-543) according to manufacturer’s protocol. The obtained T cells were counted and resuspended at a density of 5-15 x 10^6/mL in 1 mL PBS with 5 µM CFSE (Biolegend) and incubated for 15 min. at 37 °C. After incubation, cells were spun down (10 min, 300 rcf, rt), washed once more with complete RPMI-1640 and were ready for downstream use.
5 x 10^4 WT, MR^−/− BMDC or 1 x 10^5 splenic DC were seeded in 96-well Nunc U-bottom plates (Thermo Scientific, 168136) and pulsed with Glycan SLP at 40 nM for indicated time. In indicated experiments, DC were pretreated with 1 µg/mL MPLA (Avanti, 699800 P) for 2 h before antigen pulse. After antigen pulse was finished, the plate was spun down for 3 min at 600 rcf, washed once with complete RPMI-1640 and 1-1.5E5 freshly isolated, CFSE-stained OT-I T cells were added to the pulsed DCs in 200 µL complete RPMI-1640 and incubated at 37 °C. After 3 d of coculture, the plate was spun down (3 min, 600 rcf, 4 °C) and supernatant was removed and stored at −80 °C. Cells were washed with FACS buffer (PBS with 2 mM EDTA, 2% FCS and 7.4 mM NaN3) and stained with Aqua Live/DEAD (Invitrogen, L34957, 1:500), TruStain FcX (Biolegend, 101319, 1:100), CD8a—APC (clone: 53-7.6, Biolegend, 100711, 1:200), and TCR V beta 5.1/5.2—eFluor450 (clone: MR9-4, eBioscience, 48-5796-82) for 30 min on ice, washed two times and acquired on a BD Fortessa I flow cytometer and analyzed using FlowJo v8. To calculate mean cycle, the CFSE dilution factor was obtained by dividing the MFI of the antigen pulsed condition by the DMSO pulsed condition expressed as Log2[69]. Statistical analysis and plotting were performed using GraphPad Prism V10.

Row | Substance | average number of cell divisions per T cell (mean cycles)
1 | Ac-Lys(Man)-Gly-Lys(Man)-TEG-Asp-Glu-Val-Ser-Gly-Leu-Glu-Gln-Leu-Glu-Ser-Ile-Ile-Asn-Phe-Glu-Lys-Leu-Ala-Ala-Ala-Ala-Ala-Lys(sCy5)-NH2 ({Ac-K(Man)-Gly-K(Man)-TEG}-DEVSGLEQLESIINFEKLAAAAAK(sCy5)-NH2) [2 Mono(2), bivalent monomannosylated OVA SLP with sulfo-Cy5] | 1.851 and 1.961 and 2.178 and 1.94 and 2.008 and 2.005
2 | Ac-Lys(Man)-Lys(Man)-Lys(Man)-Lys(Man)-Lys(Man)-Lys(Man)-TEG-Asp-Glu-Val-Ser-Gly-Leu-Glu-Gln-Leu-Glu-Ser-Ile-Ile-Asn-Phe-Glu-Lys-Leu-Ala-Ala-Ala-Ala-Ala-Lys(sCy5)-NH2 ({Ac-K(Man)-K(Man)-K(Man)-K(Man)-K(Man)-K(Man)-TEG}-DEVSGLEQLESIINFEKLAAAAAK(sCy5)-NH2) [6 Mono(3), hexavalent monomannosylated OVA SLP with sulfo-Cy5] | 1.958 and 1.615 and 1.514 and 1.427 and 1.57 and 1.31
3 | Ac-Lys(Man)-TEG-Asp-Glu-Val-Ser-Gly-Leu-Glu-Gln-Leu-Glu-Ser-Ile-Ile-Asn-Phe-Glu-Lys-Leu-Ala-Ala-Ala-Ala-Ala-Lys(sCy5)-NH2 ({Ac-K(Man)-TEG}-DEVSGLEQLESIINFEKLAAAAAK(sCy5)-NH2) [1 Mono(1), monovalent monomannosylated OVA SLP with sulfo-Cy5] | 2.424 and 2.329 and 2.498 and 2.6657 and 2.752 and 2.248
4 | Ac-Lys(triMan)-Gly-Lys(triMan)-TEG-Asp-Glu-Val-Ser-Gly-Leu-Glu-Gln-Leu-Glu-Ser-Ile-Ile-Asn-Phe-Glu-Lys-Leu-Ala-Ala-Ala-Ala-Ala-Lys(sCy5)-NH2 (DEVSGLEQLESIINFEKLAAAAAK; two Lys(triMan), TEG, sulfo-Cy5, C-amide; printed: Asp-Glu-Val-Ser-Gly-Leu-Glu-Gln-Leu-Glu-Ser-Ile-Ile-Asn-Phe-Glu-Lys-Leu-Ala-Ala-Ala-Ala-Ala-Lys) [2 Tri(5), bivalent trimannosylated OVA SLP with sulfo-Cy5] | 0.8018 and 0.6166 and 1.144 and 1.271 and 1.393 and 1.229
5 | Ac-Lys(triMan)-Lys(triMan)-Lys(triMan)-Lys(triMan)-Lys(triMan)-Lys(triMan)-TEG-Asp-Glu-Val-Ser-Gly-Leu-Glu-Gln-Leu-Glu-Ser-Ile-Ile-Asn-Phe-Glu-Lys-Leu-Ala-Ala-Ala-Ala-Ala-Lys(sCy5)-NH2 (DEVSGLEQLESIINFEKLAAAAAK; six Lys(triMan), TEG, sulfo-Cy5, C-amide; printed: Asp-Glu-Val-Ser-Gly-Leu-Glu-Gln-Leu-Glu-Ser-Ile-Ile-Asn-Phe-Glu-Lys-Leu-Ala-Ala-Ala-Ala-Ala-Lys) [6 Tri(6), hexavalent trimannosylated OVA SLP with sulfo-Cy5] | 0.3003 and 0.3873 and 0.4343 and 0.4095 and 0.438
6 | Ac-Lys(triMan)-TEG-Asp-Glu-Val-Ser-Gly-Leu-Glu-Gln-Leu-Glu-Ser-Ile-Ile-Asn-Phe-Glu-Lys-Leu-Ala-Ala-Ala-Ala-Ala-Lys(sCy5)-NH2 (DEVSGLEQLESIINFEKLAAAAAK; Ac-Lys(triMan)-TEG, sulfo-Cy5, C-amide; printed: Asp-Glu-Val-Ser-Gly-Leu-Glu-Gln-Leu-Glu-Ser-Ile-Ile-Asn-Phe-Glu-Lys-Leu-Ala-Ala-Ala-Ala-Ala-Lys) [1 Tri(4), monovalent trimannosylated OVA SLP with sulfo-Cy5] | 1.87 and 1.461 and 1.875 and 1.671 and 1.661 and 1.884
